In patent publication US8716273B2, “N-(amino-heteroaryl)-1H-pyrrolopyridine-2-carboxamides derivatives preparation thereof and their use in therapy” (SANOFI, priority 2006, dated 2014):

Key:
TRPV1 receptors = target: T1, TRPV1 receptors (Mus musculus, UniProt Q704Y3); assay: Mouse cornea irritation test (capsaicin-induced eye rubbing); assay type: in vivo; conditions: compound 500 μM, 2 μl local application to the cornea 10 minutes before 2 μl of 160 μM capsaicin, rubbings counted for 2 minutes
T1 construct: from tissue; host or cells: cornea of the living mouse (C-fibre innervation)
Procedure: Mouse Cornea Irritation Test
The irritant nature of capsaicin is easily appreciated at the level of the cornea since this organ is one of the most innervated with the C-fibres. In this context, according to preliminary experiments, the application of a very small amount of capsaicin (2 μl at a concentration of 160 μM) to the surface of the cornea of an animal leads to a certain number of stereotypical behaviors associated with irritation, which are easily listed. These include: blinking, rubbing of the instilled eye by the ipsilateral forepaw, rubbing of the face with both forepaws, scratching of the ipsilateral face by the hindpaw. […] Moreover, its appearance is also normal. […] It can be concluded that the duration of action of capsaicin at these doses is less than 2 minutes.
SUMMARY OF THE METHODOLOGY
The principle of the series of tests is to determine whether the compounds of the invention can influence the behavioral response induced by a specified amount of capsaicin. The capsaicin is initially diluted to 25 mM in DMSO and diluted, for final use, in physiological serum with Tween 80 at 10%. It appears, from control studies, that in these conditions the solvent has no effect.
In practice, the test product, prepared at 25 mM in DMSO and diluted for final use in physiological serum with 10% of Tween 80 at the strongest concentration of 500 μM, is administered by local application to the surface of the cornea at a volume of 2 μl, 10 minutes before application of the capsaicin. The animal receives an ocular instillation of 2 μl of a 160 μM capsaicin solution prepared as stated above. For an observation period of 2 minutes following instillation, the number of times the instilled eye is rubbed by the ipsilateral forepaw is counted for each animal.
For a given group, the percentage protection is calculated as follows: P=100−((average number of scratchings of the group treated with the compound/average number of scratchings of the group treated with the solvent)×100)
This percentage protection is averaged for each group of animals (n=number of animals tested with the compound of the invention).

TRPV1 receptor = target: T2, TRPV1 receptor (Rattus norvegicus, UniProt O35433); assay: Test of inhibition of the current induced by capsaicin on the rat DRG (whole-cell patch-clamp); assay type: cell-based; conditions: inhibition of the capsaicin control response, primary culture of neonate rat DRG neurons
T2 construct: The neurons of the DRG express the TRPV1 receptor naturally; endogenous in cells; host or cells: primary culture of neonatal rat dorsal root ganglion neurons
Procedure: Test of Inhibition of the Current Induced by Capsaicin on the Rat DRG
Primary Culture of Rat Dorsal Root Ganglion (DRG) Cells:
The neurons of the DRG express the TRPV1 receptor naturally.
Primary cultures of DRG of neonate rats are prepared from 1-day-old rats. Briefly, after dissection, the ganglia are trypsinized and the cells are dissociated mechanically by careful trituration. The cells are resuspended in Eagle's basic culture medium containing 10% of fetal calf serum, 25 mM KCl, 2 mM glutamine, 100 μg/ml gentamicin and 50 ng/ml of NGF, then deposited on glass slides covered with laminin (0.25×10^6 cells per slide), which are then placed in Corning 12-well plates. The cells are incubated at 37° C. in a humidified atmosphere containing 5% CO2 and 95% air. Cytosine β-D-arabinoside (1 μM) is added 48 h after culture set-up, to prevent the development of non-neuronal cells. The slides are transferred to the test chambers for patch-clamp investigations after 7-10 days in culture.
The measuring chambers (volume 800 μl) containing the cellular preparation are placed on the stage of an inverted microscope (Olympus IMT2) fitted with Hoffman optics (Modulation Contrast, New York) and are observed at magnification of 400×. The chambers are continually perfused by gravity (2.5 ml/min) by means of a solution distributor accepting 8 inlets and whose single outlet, comprising a polyethylene tube (inside diameter 500 μm) is positioned at less than 3 mm from the cell under investigation. […] The total currents (membrane potential fixed at −60 mV) were recorded with an Axopatch 1D amplifier (Axon Instruments, Foster City, Calif.), connected to a PC controlled by Pclamp8 software (Axon Instrument). The current traces are recorded on paper and simultaneously digitized (sampling frequency […]) and saved to the hard disk of the PC.
The application of a micromolar solution of capsaicin induces a cationic input current on the DRG cells (voltage fixed at −70 mV). […] The results are expressed as percentage inhibition of the capsaicin control response.

T1 sequence (Q704Y3 whole entry): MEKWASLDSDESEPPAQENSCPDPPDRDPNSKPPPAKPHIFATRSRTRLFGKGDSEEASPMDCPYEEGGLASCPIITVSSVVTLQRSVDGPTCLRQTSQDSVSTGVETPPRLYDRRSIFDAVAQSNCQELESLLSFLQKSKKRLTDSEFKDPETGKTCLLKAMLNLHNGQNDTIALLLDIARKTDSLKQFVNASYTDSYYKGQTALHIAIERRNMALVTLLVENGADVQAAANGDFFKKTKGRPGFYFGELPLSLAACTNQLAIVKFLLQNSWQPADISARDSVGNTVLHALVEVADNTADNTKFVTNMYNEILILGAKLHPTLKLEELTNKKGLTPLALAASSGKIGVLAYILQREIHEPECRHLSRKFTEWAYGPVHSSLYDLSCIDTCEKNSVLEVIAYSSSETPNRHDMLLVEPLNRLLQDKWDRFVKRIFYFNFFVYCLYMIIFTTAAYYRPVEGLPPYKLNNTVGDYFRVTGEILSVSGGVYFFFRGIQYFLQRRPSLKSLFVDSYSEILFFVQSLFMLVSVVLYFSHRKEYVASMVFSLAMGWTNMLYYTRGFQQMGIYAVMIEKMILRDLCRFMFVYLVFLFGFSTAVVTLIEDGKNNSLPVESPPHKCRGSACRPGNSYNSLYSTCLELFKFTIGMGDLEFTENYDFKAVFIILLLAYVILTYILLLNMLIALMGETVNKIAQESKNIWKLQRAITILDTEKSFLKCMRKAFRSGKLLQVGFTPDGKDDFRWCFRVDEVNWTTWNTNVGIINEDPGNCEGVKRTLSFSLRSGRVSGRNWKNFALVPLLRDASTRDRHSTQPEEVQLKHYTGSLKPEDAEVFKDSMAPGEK
T2 sequence (O35433 whole entry): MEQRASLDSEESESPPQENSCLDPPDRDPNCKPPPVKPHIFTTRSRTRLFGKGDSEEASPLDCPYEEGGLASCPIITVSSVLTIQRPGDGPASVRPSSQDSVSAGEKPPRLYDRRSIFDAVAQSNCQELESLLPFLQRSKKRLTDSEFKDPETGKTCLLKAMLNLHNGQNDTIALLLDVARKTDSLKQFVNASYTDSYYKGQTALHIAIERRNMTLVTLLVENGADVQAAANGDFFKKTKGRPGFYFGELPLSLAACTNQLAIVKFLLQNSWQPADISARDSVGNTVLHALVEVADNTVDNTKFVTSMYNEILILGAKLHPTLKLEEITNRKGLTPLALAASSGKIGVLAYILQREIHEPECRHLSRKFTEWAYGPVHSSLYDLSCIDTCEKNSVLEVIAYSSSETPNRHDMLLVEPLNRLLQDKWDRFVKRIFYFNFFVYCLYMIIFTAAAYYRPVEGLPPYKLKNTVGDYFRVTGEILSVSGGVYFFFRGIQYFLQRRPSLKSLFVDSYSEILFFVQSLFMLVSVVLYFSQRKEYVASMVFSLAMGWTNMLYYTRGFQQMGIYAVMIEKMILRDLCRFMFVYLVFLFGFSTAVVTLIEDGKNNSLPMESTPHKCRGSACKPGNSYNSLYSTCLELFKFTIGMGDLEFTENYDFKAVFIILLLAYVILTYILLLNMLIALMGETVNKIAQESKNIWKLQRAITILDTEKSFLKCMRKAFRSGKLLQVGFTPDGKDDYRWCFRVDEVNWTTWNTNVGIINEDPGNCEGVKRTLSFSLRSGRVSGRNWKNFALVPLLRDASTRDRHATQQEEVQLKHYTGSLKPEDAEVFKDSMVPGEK

Compound	% P 500 μM (percentage protection) (TRPV1 receptors) [%]	further results
CNc1ccc(NC(=O)c2cc3cc(C(F)(F)F)cnc3n2Cc2cccc(F)c2)cn1 [Compound 1, N-[(6-Methylamino)pyridin-3-yl]-5-trifluoromethyl-1-(3-fluorobenzyl)-1H-pyrrolo[2,3-b]pyridine-2-carboxamide]	51	
O=C(Nc1ccc(N2CCC2)nc1)c1cc2cc(C(F)(F)F)cnc2n1Cc1cccc(F)c1 [Compound 15, N-[6-(Azetidin-1-yl)pyridin-3-yl]-5-trifluoromethyl-1-(3-fluorobenzyl)-1H-pyrrolo[2,3-b]pyridine-2-carboxamide]		inhibition at 0.01 µM (TRPV1 receptor; DRG neuron, compound at 10 nM, read-out: Percentage inhibition in patch DRG): 100%
O=C(Nc1ccc(N2CCCC2)nc1)c1cc2cc(C(F)(F)F)cnc2n1Cc1cccc(F)c1 [Compound 6, N-[6-(Pyrrolidin-1-yl)pyridin-3-yl]-5-trifluoromethyl-1-(3-fluorobenzyl)-1H-pyrrolo[2,3-b]pyridine-2-carboxamide]	30	inhibition at 0.001 µM (TRPV1 receptor; DRG neuron, compound at 1 nM, read-out: Percentage inhibition in patch DRG): 71%
O=C(Nc1ccc(N2CCCC2)nc1)c1cc2cc(C(F)(F)F)cnc2n1Cc1ccncc1 [Compound 9, N-[6-(Pyrrolidin-1-yl)pyridin-3-yl]-5-trifluoromethyl-1-[(4-pyridyl)methyl]-1H-pyrrolo[2,3-b]pyridine-2-carboxamide]	43	
O=C(Nc1ccc(N2CCC(F)(F)C2)nc1)c1cc2cc(C(F)(F)F)cnc2n1Cc1cccc(F)c1 [Compound 12, N-[6-(3,3-difluoropyrrolidin-1-yl)pyridin-3-yl]-5-trifluoromethyl-1-(3-fluorobenzyl)-1H-pyrrolo[2,3-b]pyridine-2-carboxamide]	83	
CN(C)c1ncc(NC(=O)c2cc3cc(C(F)(F)F)cnc3n2Cc2cccc(F)c2)cc1C(F)(F)F.Cl [Compound 4, N-(6-N,N-Dimethylamino-5-trifluoromethyl-pyridin-3-yl)-5-trifluoromethyl-1-(3-fluorobenzyl)-1H-pyrrolo[2,3-b]pyridine-2-carboxamide hydrochloride (1:1)]		Percentage inhibition in patch DRG (TRPV1 receptor; compound at 1 nM): 98% (1 nM)
Cc1cc(N(C)C)ncc1NC(=O)c1cc2cc(C(F)(F)F)cnc2n1Cc1cccc(F)c1.Cl [Compound 3, N-(6-N,N-Dimethylamino-4-methyl-pyridin-3-yl)-5-trifluoromethyl-1-(3-fluorobenzyl)-1H-pyrrolo[2,3-b]pyridine-2-carboxamide hydrochloride (1:1)]	34	
